One experiment concerns Haemonchus contortus. Kind of experiment: In vivo nematode test, Haemonchus contortus / sheep. To be noted: experimentally infected sheep (Schaf), treated after the prepatent period, pure active compound in gelatin capsules, oral, dose giving complete cessation of egg excretion in faeces, read-out: Dosis effectiva. The source says:
Haemonchus contortus / Schaf
Experimentell mit Haemonchus contortus infizierte Schafe wurden nach Ablauf der Präpatenzzeit des Parasiten behandelt. Die Wirkstoffe wurden als reiner Wirkstoff in Gelatinekapseln oral appliziert.
Der Wirkungsgrad wird dadurch bestimmt, daß man die mit dem Kot ausgeschiedenen […] vor und nach der Behandlung quantitativ auszählt.
Ein völliges Sistieren der Eiausscheidung nach der Behandlung bedeutet, daß die Würmer abgetrieben wurden oder so geschädigt sind, daß sie keine Eier mehr produzeiren (Dosis effectiva).
Geprüfte Wirkstoffe und wirksame Dosierungen (Dosis effectiva) sind aus der nachfolgenden Tabelle ersichtlich: […]

The subject of experiment [1] is Trichostrongylus colubriformis. The experiment can be described thus: In vivo nematode test, Trichostrongylus colubriformis / sheep. To be noted: experimentally infected sheep (Schaf), treated after the prepatent period, pure active compound in gelatin capsules, oral, dose giving complete cessation of egg excretion in faeces, read-out: Dosis effectiva. The source says:
Trichostrongylus colubriformis / Schaf
Experimentell mit Trichostrongylus colubriformis infizierte Schafe wurden nach Ablauf der Präpatenzzeit des Parasiten behandelt. Die Wirkstoffe wurden als reiner Wirkstoff in Gelatinekapseln oral appliziert.
Der Wirkungsgrad wird dadurch bestimmt, daß man die mit dem Kot ausgeschiedenen Wurmeier vor und nach der Behandlung quantitativ auszählt.
Ein völliges Sistieren der Eiausscheidung nach der Behandlung bedeutet, daß die Würmer abgetrieben wurden oder so geschädigt sind, daß sie keine Eier mehr produzieren (Dosis effectiva).
Geprüfte Wirkstoffe und wirksame Dosierungen (Dosis effectiva) sind aus der nachfolgenden Tabelle ersichtlich.

With `CSc1ncccc1C(=O)Nc1ccccc1` [Beispiel 1], in the experiment with Haemonchus contortus, the minimal effective dose came to 10 mg/kg.

`CCCSc1ncccc1C(=O)Nc1ccccc1` [Beispiel 2]: the minimal effective dose (in experiment [1]; in the experiment on Haemonchus contortus) was 10 mg/kg each time.

As to `CSc1ncccc1C(=O)Nc1ccc(Cl)cc1` [Beispiel 7], the minimal effective dose in experiment [1] came out at 5 mg/kg; in the experiment on Haemonchus contortus, 10 mg/kg.

With `CCCSc1ncccc1C(=O)Nc1ccc(SC(F)(F)F)cc1` [Beispiel 29], the minimal effective dose (in experiment [1]; with Haemonchus contortus) was 10 mg/kg each time.

On to `CSc1ncccc1C(=O)Nc1ccc(Sc2ccc(Cl)cc2)cc1C(F)(F)F` [Beispiel 87], for which the minimal effective dose in experiment [1] was 10 mg/kg.

For `CCCSc1ncccc1C(=O)Nc1ccc(Cl)cc1` [Beispiel 9], the minimal effective dose with Haemonchus contortus was 10 mg/kg.

On to `C=CCSc1ncccc1C(=O)Nc1ccccc1` [Beispiel 3], for which the minimal effective dose in experiment [1] was found to be 10 mg/kg.

In the case of `CCSc1ncccc1C(=O)Nc1ccccc1` [Beispiel 24], the minimal effective dose in the experiment with Haemonchus contortus is 10 mg/kg.

Turning to `CCCSc1ncccc1C(=O)Nc1ccccc1Cl` [Beispiel 6], the minimal effective dose in the experiment with Haemonchus contortus turned out to be 5 mg/kg.

In the case of `CCSc1ncccc1C(=O)Nc1ccc(Cl)cc1` [Beispiel 13], in experiment [1], the minimal effective dose was 10 mg/kg.

The record behind these values is patent publication EP0480258A2, “Use of substituted 2-mercapto-nicotinic acid derivatives for combat against endoparasites, novel substituted 2-mercaptonicotinir acid derivatives and processes for their preparation” (BAYER AG, priority 1990, dated 1992).
